For experiment [1], the target named is T1, Adenosine receptor A1 (Homo sapiens) (UniProt P30542).
T1 sequence (whole entry): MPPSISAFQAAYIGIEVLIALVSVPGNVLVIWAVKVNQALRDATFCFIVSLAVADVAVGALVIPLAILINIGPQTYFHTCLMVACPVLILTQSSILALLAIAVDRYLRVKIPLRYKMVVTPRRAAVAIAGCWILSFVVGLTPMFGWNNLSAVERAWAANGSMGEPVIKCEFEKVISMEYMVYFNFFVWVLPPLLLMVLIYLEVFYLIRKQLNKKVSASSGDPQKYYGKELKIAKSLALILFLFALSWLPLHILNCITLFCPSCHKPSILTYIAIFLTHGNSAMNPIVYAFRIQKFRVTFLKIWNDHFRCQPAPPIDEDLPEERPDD
The experiment can be described thus: (§1) Selectivity interaction (CEREP panel (GPCRS, ion channels, transporters)) EUB0000193b ADORA1. The settings on record: Inactive against protein arginine methyltransferases,, at 10 µM.

For the next experiment, the target named is Adenosine receptor A1 (Homo sapiens, UniProt P30542). The description is as §1.
Experiment [2] addresses Adenosine receptor A2a (Homo sapiens) (UniProt P29274). The experiment can be described thus: Selectivity interaction (CEREP panel (GPCRS, ion channels, transporters)) EUB0000193b ADORA2A. The following applies: Inactive against protein arginine methyltransferases,, at 10 µM.
Experiment [3] addresses T2, Adenosine receptor A3 (Homo sapiens) (UniProt P0DMS8).
T2 sequence (whole entry): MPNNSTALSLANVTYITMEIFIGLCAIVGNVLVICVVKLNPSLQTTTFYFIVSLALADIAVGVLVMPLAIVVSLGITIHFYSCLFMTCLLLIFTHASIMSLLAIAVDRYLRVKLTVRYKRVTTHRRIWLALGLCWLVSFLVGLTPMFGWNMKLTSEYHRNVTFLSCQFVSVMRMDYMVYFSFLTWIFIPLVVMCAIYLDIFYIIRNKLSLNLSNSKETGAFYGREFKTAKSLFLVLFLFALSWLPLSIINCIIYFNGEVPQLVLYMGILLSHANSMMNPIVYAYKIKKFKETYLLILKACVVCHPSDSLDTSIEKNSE
The experiment can be described thus: Selectivity interaction (CEREP panel (GPCRS, ion channels, transporters)) EUB0000193b ADORA3. The following applies: Inactive against protein arginine methyltransferases,, at 10 µM.

Experiment [4] deals with Delta-type opioid receptor (Homo sapiens) (UniProt P41143). The experiment can be described thus: Selectivity interaction (CEREP panel (GPCRS, ion channels, transporters)) EUB0000193b OPRD1. The settings on record: Inactive against protein arginine methyltransferases,, at 10 µM.
Experiment [5] deals with Kappa-type opioid receptor (Homo sapiens, UniProt P41145). Kind of experiment: Selectivity interaction (CEREP panel (GPCRS, ion channels, transporters)) EUB0000193b OPRK1. The following applies: Inactive against protein arginine methyltransferases,, at 10 µM.
For experiment [6], the target named is Substance-K receptor (Homo sapiens) (UniProt P21452). The experiment can be described thus: Selectivity interaction (CEREP panel (GPCRS, ion channels, transporters)) EUB0000193b TACR2. The settings on record: Inactive against protein arginine methyltransferases,, at 10 µM.
The target in experiment [7] is T3, Gamma-aminobutyric acid receptor subunit alpha-1 (Homo sapiens) (UniProt P14867).
T3 sequence (whole entry): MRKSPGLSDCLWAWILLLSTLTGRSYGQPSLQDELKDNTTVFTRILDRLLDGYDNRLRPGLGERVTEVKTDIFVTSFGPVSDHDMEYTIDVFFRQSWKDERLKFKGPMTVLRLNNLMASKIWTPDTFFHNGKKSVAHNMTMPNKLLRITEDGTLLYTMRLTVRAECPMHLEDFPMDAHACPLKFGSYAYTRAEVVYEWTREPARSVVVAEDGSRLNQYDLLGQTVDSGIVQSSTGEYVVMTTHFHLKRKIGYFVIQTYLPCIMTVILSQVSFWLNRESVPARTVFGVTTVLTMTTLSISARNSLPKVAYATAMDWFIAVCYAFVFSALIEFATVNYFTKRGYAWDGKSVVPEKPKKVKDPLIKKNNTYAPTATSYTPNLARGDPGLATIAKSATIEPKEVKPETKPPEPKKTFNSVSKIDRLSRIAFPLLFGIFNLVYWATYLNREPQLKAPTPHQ
Kind of experiment: (§2) Selectivity interaction (CEREP panel (GPCRS, ion channels, transporters)) EUB0000193b GABRA1. The settings on record: Inactive against protein arginine methyltransferases,, at 10 µM.

The target of experiment [8] is T4, Gamma-aminobutyric acid receptor subunit alpha-1 (Homo sapiens, UniProt P14867).
T4 sequence (P14867 whole entry): T3 sequence (whole entry)
The description is as §2.

In experiment [9] the target is Histone-lysine N-methyltransferase NSD2 (Homo sapiens) (UniProt O96028). The experiment can be described thus: Selectivity interaction (Epigenetic methyltransferases panel) EUB0000193b NSD2. The following applies: Inactive against protein arginine methyltransferases,, at 10 µM.
Experiment [10] concerns the target Protein arginine N-methyltransferase 5 (Homo sapiens, UniProt O14744). Kind of experiment: Selectivity interaction (Methyltransferase panel (Scintillation proximity assay (SPA))) EUB0000212b PRMT5.
The target in experiment [11] is T5, Histone-lysine N-methyltransferase SETD7 (Homo sapiens, UniProt Q8WTS6).
T5 sequence (Q8WTS6 whole entry): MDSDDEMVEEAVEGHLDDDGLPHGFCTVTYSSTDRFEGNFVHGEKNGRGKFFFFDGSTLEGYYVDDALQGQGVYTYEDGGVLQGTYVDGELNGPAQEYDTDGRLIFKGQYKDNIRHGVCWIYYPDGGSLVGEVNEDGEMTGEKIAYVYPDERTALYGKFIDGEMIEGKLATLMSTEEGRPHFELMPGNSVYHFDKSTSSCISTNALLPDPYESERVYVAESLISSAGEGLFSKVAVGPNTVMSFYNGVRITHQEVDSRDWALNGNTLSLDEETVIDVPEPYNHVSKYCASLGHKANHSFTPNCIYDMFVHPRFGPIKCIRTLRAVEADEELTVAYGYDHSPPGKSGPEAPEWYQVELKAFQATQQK
Kind of experiment: Selectivity interaction (Methyltransferase panel (Scintillation proximity assay (SPA))) EUB0000212b SETD7.

In experiment [12] the target is DNA (cytosine-5)-methyltransferase 1 (Homo sapiens, UniProt P26358). The experiment can be described thus: Selectivity interaction (Methyltransferase panel (Scintillation proximity assay (SPA))) EUB0000212b DNMT1.
Experiment [13] has as its target Histone-lysine N-methyltransferase 2A (Homo sapiens, UniProt Q03164). Kind of experiment: Selectivity interaction (Methyltransferase panel (Scintillation proximity assay (SPA))) EUB0000212b MLL.
The target in experiment [14] is Histone-lysine N-methyltransferase, H3 lysine-79 specific (Homo sapiens, UniProt Q8TEK3). Kind of experiment: Selectivity interaction (Methyltransferase panel (Scintillation proximity assay (SPA))) EUB0000212b DOT1L.
Experiment [15] addresses T6, Histone-lysine N-methyltransferase EZH1 (Homo sapiens, UniProt Q92800).
T6 sequence (Q92800 whole entry): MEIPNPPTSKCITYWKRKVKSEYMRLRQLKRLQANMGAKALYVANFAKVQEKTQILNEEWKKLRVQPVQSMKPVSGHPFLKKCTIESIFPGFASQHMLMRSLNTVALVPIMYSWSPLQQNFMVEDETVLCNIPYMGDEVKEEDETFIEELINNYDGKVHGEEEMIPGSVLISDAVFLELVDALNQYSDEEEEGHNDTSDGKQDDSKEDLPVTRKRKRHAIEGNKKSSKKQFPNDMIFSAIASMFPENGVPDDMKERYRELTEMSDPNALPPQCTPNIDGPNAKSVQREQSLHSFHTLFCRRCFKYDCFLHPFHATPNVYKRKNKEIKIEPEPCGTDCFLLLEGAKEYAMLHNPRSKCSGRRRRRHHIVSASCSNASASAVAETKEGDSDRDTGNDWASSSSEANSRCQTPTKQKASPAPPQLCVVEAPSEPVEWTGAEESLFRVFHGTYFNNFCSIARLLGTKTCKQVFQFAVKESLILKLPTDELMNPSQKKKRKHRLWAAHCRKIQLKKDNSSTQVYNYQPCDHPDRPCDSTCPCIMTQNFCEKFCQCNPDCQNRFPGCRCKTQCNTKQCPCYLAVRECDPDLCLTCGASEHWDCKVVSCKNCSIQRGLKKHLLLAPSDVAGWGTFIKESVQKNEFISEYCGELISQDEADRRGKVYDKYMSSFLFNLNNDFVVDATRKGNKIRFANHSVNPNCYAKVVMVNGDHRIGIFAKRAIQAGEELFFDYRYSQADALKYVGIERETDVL
Kind of experiment: Selectivity interaction (Methyltransferase panel (Scintillation proximity assay (SPA))) EUB0000212b EZH1.

The target in experiment [16] is Histone-lysine N-methyltransferase EZH2 (Homo sapiens, UniProt Q15910). Kind of experiment: Selectivity interaction (Methyltransferase panel (Scintillation proximity assay (SPA))) EUB0000212b EZH2.
The target of experiment [17] is Histone-lysine N-methyltransferase NSD2 (Homo sapiens, UniProt O96028). Kind of experiment: Selectivity interaction (Methyltransferase panel (Scintillation proximity assay (SPA))) EUB0000212b NSD2.
Experiment [18] concerns the target Histone-lysine N-methyltransferase NSD3 (Homo sapiens, UniProt Q9BZ95). The experiment can be described thus: Selectivity interaction (Methyltransferase panel (Scintillation proximity assay (SPA))) EUB0000212b NSD3.
Experiment [19] addresses Protein arginine N-methyltransferase 1 (Homo sapiens, UniProt Q99873). Kind of experiment: Selectivity interaction (Methyltransferase panel (Scintillation proximity assay (SPA))) EUB0000212b PRMT1.
For experiment [20], the target named is Protein arginine N-methyltransferase 3 (Homo sapiens, UniProt O60678). The experiment can be described thus: Selectivity interaction (Methyltransferase panel (Scintillation proximity assay (SPA))) EUB0000212b PRMT3.
The target of experiment [21] is Protein arginine N-methyltransferase 6 (Homo sapiens, UniProt Q96LA8). The experiment can be described thus: Selectivity interaction (Methyltransferase panel (Scintillation proximity assay (SPA))) EUB0000212b PRMT6.
The target in experiment [22] is Protein arginine N-methyltransferase 8 (Homo sapiens, UniProt Q9NR22). The experiment can be described thus: Selectivity interaction (Methyltransferase panel (Scintillation proximity assay (SPA))) EUB0000212b PRMT8.
Experiment [23] has as its target T7, N-lysine methyltransferase KMT5A (Homo sapiens, UniProt Q9NQR1).
T7 sequence (Q9NQR1 whole entry): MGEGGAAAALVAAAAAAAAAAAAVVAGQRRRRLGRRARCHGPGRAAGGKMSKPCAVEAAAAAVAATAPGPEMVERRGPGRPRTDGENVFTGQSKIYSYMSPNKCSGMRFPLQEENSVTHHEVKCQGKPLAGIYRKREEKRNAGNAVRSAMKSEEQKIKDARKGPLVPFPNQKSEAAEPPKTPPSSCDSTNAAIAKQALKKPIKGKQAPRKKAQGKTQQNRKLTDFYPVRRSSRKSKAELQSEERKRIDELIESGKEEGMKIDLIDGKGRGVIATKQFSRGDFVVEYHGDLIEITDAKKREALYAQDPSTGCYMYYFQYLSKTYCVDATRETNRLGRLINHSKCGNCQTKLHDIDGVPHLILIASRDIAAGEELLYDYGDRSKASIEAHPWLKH
Kind of experiment: Selectivity interaction (Methyltransferase panel (Scintillation proximity assay (SPA))) EUB0000212b SETD8.

Experiment [24] concerns the target Histone-lysine N-methyltransferase SETDB1 (Homo sapiens, UniProt Q15047). Kind of experiment: Selectivity interaction (Methyltransferase panel (Scintillation proximity assay (SPA))) EUB0000212b SETDB1.
The target in experiment [25] is Histone-lysine N-methyltransferase SMYD3 (Homo sapiens, UniProt Q9H7B4). The experiment can be described thus: Selectivity interaction (Methyltransferase panel (Scintillation proximity assay (SPA))) EUB0000212b SMYD3.
For experiment [26], the target named is Histone-lysine N-methyltransferase SUV39H2 (Homo sapiens, UniProt Q9H5I1). Kind of experiment: Selectivity interaction (Methyltransferase panel (Scintillation proximity assay (SPA))) EUB0000212b SUV39H2.
Experiment [27] has as its target Histone-lysine N-methyltransferase KMT5B (Homo sapiens, UniProt Q4FZB7). Kind of experiment: Selectivity interaction (Methyltransferase panel (Scintillation proximity assay (SPA))) EUB0000212b SUV420H1.
Experiment [28] concerns the target Histone-lysine N-methyltransferase KMT5C (Homo sapiens, UniProt Q86Y97). The experiment can be described thus: Selectivity interaction (Methyltransferase panel (Scintillation proximity assay (SPA))) EUB0000212b SUV420H2.

Structures are written as SMILES.

Chain of Histone-lysine N-methyltransferase KMT5B (Q4FZB7 whole entry): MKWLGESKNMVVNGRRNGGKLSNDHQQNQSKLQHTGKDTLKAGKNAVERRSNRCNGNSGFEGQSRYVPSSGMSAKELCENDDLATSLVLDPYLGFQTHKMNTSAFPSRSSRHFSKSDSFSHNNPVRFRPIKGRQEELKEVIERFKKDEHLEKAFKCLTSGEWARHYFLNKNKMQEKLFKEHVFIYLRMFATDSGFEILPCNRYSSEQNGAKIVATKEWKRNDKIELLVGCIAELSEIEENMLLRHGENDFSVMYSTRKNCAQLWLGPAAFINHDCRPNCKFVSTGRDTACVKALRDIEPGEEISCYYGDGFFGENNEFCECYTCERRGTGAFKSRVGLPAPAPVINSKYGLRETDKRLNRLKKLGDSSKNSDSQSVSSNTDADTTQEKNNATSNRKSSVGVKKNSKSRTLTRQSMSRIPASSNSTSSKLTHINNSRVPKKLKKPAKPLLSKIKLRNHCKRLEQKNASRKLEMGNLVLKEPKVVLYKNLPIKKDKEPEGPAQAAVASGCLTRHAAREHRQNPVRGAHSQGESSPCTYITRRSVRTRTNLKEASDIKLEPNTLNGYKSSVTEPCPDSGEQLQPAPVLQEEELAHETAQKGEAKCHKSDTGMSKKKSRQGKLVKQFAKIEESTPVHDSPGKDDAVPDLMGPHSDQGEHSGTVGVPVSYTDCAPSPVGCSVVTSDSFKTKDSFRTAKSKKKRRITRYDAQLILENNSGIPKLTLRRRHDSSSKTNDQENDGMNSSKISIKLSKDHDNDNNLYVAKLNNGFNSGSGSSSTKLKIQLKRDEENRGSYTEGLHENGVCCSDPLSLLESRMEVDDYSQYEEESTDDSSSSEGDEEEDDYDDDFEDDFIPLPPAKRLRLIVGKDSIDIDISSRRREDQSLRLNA
Chain of Histone-lysine N-methyltransferase EZH2 (Q15910 whole entry): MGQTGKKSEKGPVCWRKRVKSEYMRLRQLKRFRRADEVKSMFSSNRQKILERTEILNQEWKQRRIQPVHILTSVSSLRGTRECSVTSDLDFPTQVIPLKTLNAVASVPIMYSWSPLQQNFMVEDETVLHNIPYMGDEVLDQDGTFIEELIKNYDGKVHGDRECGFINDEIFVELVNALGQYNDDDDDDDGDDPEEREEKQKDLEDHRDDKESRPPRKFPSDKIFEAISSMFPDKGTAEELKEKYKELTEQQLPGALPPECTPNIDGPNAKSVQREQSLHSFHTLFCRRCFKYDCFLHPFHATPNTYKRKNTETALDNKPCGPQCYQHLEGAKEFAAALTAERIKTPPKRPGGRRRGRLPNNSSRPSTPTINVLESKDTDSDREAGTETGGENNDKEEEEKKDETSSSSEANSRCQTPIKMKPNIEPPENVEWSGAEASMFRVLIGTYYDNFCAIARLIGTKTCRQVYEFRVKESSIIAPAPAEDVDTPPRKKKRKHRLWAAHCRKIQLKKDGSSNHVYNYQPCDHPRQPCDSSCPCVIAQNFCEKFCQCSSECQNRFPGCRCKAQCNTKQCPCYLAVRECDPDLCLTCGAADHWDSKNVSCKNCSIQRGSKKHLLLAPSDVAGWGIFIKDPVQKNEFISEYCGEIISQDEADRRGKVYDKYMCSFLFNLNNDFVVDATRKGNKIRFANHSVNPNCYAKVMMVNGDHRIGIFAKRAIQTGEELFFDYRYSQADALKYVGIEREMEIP
Chain of Protein arginine N-methyltransferase 8 (Q9NR22 whole entry): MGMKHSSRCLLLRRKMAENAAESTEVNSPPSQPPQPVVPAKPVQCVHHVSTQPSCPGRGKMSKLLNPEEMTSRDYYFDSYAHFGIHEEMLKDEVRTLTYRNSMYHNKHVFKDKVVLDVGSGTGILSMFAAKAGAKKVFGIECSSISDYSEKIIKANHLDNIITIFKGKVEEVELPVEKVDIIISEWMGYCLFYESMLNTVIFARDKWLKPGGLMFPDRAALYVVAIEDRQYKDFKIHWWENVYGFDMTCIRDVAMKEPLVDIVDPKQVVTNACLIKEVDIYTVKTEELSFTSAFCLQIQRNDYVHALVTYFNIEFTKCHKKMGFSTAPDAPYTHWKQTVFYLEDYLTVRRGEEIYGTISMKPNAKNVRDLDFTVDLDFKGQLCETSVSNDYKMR
Chain of Adenosine receptor A2a (Homo sapiens) (P29274 whole entry): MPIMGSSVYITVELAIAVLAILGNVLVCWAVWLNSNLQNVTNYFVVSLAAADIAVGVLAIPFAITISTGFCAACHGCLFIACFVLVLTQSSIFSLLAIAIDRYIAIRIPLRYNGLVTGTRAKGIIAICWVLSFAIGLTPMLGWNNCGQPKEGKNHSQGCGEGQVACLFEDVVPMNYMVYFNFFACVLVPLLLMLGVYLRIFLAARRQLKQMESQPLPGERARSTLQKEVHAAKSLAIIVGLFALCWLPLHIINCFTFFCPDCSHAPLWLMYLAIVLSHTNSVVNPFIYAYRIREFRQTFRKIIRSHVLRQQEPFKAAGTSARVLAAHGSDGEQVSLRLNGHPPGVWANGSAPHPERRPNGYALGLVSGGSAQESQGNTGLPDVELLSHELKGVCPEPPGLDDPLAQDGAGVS
Chain of DNA (cytosine-5)-methyltransferase 1 (P26358 whole entry): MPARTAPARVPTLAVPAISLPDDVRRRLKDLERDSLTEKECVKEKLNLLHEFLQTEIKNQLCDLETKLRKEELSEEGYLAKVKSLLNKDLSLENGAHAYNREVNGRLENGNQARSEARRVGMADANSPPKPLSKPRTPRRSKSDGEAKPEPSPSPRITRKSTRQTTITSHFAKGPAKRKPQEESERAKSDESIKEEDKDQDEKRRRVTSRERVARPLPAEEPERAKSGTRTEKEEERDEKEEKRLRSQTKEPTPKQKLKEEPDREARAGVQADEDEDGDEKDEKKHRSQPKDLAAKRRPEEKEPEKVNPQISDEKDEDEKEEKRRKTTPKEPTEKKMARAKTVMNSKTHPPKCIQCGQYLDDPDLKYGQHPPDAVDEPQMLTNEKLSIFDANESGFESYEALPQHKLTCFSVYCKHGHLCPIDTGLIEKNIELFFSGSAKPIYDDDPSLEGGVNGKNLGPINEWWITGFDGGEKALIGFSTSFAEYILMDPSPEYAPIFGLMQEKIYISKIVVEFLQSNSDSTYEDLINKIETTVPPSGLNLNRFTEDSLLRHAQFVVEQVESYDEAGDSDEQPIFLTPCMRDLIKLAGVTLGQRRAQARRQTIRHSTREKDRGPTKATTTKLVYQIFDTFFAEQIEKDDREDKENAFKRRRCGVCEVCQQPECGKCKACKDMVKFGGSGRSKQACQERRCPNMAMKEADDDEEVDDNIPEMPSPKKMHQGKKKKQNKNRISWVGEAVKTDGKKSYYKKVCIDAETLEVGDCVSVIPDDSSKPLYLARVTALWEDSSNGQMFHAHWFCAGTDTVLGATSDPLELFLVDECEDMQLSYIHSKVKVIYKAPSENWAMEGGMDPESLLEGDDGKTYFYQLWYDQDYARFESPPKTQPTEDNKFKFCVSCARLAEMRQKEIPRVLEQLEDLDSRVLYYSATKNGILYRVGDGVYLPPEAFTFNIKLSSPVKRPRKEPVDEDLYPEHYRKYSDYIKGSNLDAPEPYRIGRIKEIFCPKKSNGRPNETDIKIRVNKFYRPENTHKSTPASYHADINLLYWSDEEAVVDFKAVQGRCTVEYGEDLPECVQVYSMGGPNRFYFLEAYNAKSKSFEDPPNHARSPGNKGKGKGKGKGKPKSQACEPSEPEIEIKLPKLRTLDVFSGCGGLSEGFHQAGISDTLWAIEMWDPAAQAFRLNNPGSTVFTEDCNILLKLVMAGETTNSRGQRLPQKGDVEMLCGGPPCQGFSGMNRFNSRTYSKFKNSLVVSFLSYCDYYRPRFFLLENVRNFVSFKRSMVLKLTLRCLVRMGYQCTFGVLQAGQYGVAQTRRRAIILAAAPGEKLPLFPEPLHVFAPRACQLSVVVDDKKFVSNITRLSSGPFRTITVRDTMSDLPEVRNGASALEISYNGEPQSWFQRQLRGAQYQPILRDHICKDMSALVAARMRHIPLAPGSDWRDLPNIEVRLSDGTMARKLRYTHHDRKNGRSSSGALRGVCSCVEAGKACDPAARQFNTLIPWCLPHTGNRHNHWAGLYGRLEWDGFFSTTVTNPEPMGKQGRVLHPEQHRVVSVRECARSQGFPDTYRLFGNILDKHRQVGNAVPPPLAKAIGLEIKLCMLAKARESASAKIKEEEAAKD
Chain of Protein arginine N-methyltransferase 5 (O14744 whole entry): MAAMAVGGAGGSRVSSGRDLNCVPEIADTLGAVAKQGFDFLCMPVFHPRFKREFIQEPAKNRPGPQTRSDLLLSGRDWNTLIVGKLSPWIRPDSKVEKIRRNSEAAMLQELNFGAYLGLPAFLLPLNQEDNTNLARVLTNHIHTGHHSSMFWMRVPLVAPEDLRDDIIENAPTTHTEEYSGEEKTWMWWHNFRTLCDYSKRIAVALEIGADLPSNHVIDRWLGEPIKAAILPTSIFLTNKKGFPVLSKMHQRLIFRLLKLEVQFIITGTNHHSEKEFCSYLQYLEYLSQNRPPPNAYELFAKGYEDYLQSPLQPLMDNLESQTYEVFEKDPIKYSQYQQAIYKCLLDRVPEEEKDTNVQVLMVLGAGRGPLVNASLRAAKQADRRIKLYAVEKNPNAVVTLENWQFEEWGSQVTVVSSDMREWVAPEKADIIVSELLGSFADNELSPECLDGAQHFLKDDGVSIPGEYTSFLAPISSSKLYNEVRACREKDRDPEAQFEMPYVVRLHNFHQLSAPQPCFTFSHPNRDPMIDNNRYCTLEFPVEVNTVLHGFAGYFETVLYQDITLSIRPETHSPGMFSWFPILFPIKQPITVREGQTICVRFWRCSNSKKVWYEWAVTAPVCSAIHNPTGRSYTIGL
Chain of Delta-type opioid receptor (Homo sapiens) (P41143 whole entry): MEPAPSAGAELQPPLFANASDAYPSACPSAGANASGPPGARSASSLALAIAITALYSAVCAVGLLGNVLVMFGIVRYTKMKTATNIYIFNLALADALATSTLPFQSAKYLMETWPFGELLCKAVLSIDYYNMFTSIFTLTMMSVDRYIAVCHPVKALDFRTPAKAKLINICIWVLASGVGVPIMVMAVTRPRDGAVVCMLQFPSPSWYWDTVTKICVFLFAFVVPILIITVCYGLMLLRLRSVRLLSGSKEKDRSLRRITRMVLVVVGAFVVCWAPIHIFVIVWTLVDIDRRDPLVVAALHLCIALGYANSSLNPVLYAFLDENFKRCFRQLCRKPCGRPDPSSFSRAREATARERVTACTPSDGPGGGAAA

Turning to `Clc1cc2c(NC3CCCC3)nnc(-c3ccncc3)c2cc1Cl`, the % of inhibition was determined as 98% in experiment [1]; 98% in [2]; 74% in [3]; 51% in experiment [4]; 62% in [5]; 61% in experiment [6]. Further, in experiment [7], the % of inhibition turned out to be 90%. In addition, the Ki was determined as 0.012 µM on Adenosine receptor A1 and 1.8 µM in experiment [8]. For the same compound, the % of activity remaining in experiment [9] was 90%.
Consider `COc1cc2c(cc1OCCCN1CCCC1)N=C(N)C21CCC1`, for which the EC50 in [10], in experiment [11], in experiment [12], in [13], in [14] and in experiment [15] was over 50 µM each time. Besides, the EC50 in [16], in experiment [17], in experiment [18], in [19], in experiment [20] and in experiment [21] was over 50 µM throughout. For the same compound, the EC50 in experiment [22], in [23], in [24], in experiment [25], in [26] and in experiment [27] was over 50 µM in each case. In experiment [28], this compound had an EC50 of over 50 µM.

The values above are taken from ChEMBL document CHEMBL5212743, “Selectivity Literature for EUbOPEN Chemogenomics Library wave 3” (2023).
